Test results as given in patent publication US20090004474A1, “Lyocell fibers with anti-microbial activity” (Weyerhaeuser Co., priority 2007, published 2009).

Key:
[1] = test system: E coli; assay: Growth medium study, antimicrobial test of meltblown fibers against E. coli; assay type: cell-based; details: compared to a control at the same time; for reduction of E. coli colony forming units at twenty four hours compared to a control: 24 hours
Method: E. coli: Prep Culti-Loop in 1.0 ml sterile TSB for 10 min.
ATCC 8739 Streak to TSA slant and grow for 24 hours @ 35 C
For S. aureus and E. coli, make 1:100 dilution of stock culture solution, and add 1.0 ml of the diluted solution to 1.0 liter of MGM.
S. aureus: 94.4 ml stock PBS+849.6 DI water; adjust pH & sterilize. (or 994 ml pre-diluted PBS Stock solution). (2X+2)200=2000 ml for 4. • ADD: 1.0 ml MSM • 50 ml BME vitamins. • 5 ml 1% Peptone. • 1.0 ml diluted Bacterial Culture (pre-made) • b. E. coli: 94.9 ml stock PBS+854.1 ml DI water; adjust pH & sterilize. (or 949 ml pre-diluted PBS Stock solution). (2X+2)200=2000 ml for 4. • ADD: 1.0 ml MSM • 50 ml BME vitamins. • 1.0 ml diluted Bacterial Culture (pre-made) • c. C. albicans: 92.9 ml stock PBS+836.1 ml DI water; adjust pH & sterilize. (or 929 ml pre-diluted PBS Stock solution). (2X+2)200=2000 ml for 4. • ADD: 1.0 ml MSM • 50 ml BME vitamins. • 20 ml 10% Peptone. • 10 ml 10% (NH4)2SO4 • 1.0 ml of Undiluted Bacterial Culture (pre-made) 7. Product to test:
Prep enough sterile 250 Plastic Bottles to handle 2 repetitions of each organism plus pos. and neg. control. (45 flasks are needed to test 6 products.) • B. Label all Plastic Bottles with organism (Staph, E. coli, C alb.), plus Sequential Number (W-1,W-2 . . . , W-45). • c. Add 2.0 gm of each product to be tested to each Plastic Bottle (or a sterile blender if Sample is not soft), then add 200 ml of inoculated MGM. Incubate, with shaking (in wire milk case—attached to shaker waterbath—plus one or two plastic cases) for 4 and 24 hours at 37 C Run duplicate tests. […] Run two bottles for each organism containing 200 ml of inoculated MGM, without Weyerhaeuser Sample. These are Blanks. • f. Run positive controls, TSB in place of Sample (see below) for each organism type. […] Incubation and counting. • a. […]

[2] = test system: C. Albicans; assay: Growth medium study, antimicrobial test of meltblown fibers against C. albicans; assay type: cell-based; details: compared to a control at the same time
Method: Growth Medium Study Procedure
C. albicans: Prep Culti-Loop in 1.0 ml of sterile dilute PBS
ATCC 10231 Solution for 10 min. Streak onto SDA and grow for 24 hours @ 35 C
a. Prepare 9.0 ml dilute PBS tubes. Remove (wash) each culture organism from slants and add to PBS tubes.
Adjust so the turbidity of the culture matches a 0.5 McFarland solution (In BAM Media Pages). This is the stock culture solution. (S. aureus & E. coli, C. albicans.)
c. For C. albicans add 1.0 ml stock culture solution to 1.0 liter of MGM. (about […] final population)
6. Specialized MGM solutions for each Organism: • a. S. aureus: 94.4 ml stock PBS+849.6 DI water; adjust pH & sterilize. (or […] pre-diluted PBS Stock solution). (2X+2)200=2000 ml for 4. • ADD: 1.0 ml MSM • 50 ml BME vitamins. • 5 ml 1% Peptone. • 1.0 ml diluted Bacterial Culture (pre-made) • b. E. coli: 94.9 ml stock PBS+854.1 ml DI water; adjust pH & sterilize. (or 949 ml pre-diluted PBS Stock solution). (2X+2)200=2000 ml for 4. • ADD: 1.0 ml MSM • 50 ml BME vitamins. • 1.0 ml diluted Bacterial Culture (pre-made) • c. C. albicans: 92.9 ml stock PBS+836.1 ml DI water; adjust pH & sterilize. (or 929 ml pre-diluted PBS Stock solution). (2X+2)200=2000 ml for 4. • ADD: 1.0 ml MSM • 50 ml BME vitamins. • 20 ml 10% Peptone. • 10 ml 10% (NH4)2SO4 • 1.0 ml of Undiluted Bacterial Culture (pre-made) 7. Product to test:
a. […]

SMILES	reduction of E. coli colony forming units at twenty four hours compared to a control [1]	reduction of C. albicans count at four hours compared to a control ([2]; 4 hours)	reduction of C. albicans count at twenty four hours compared to a control ([2]; 24 hours)	reduction of E. coli colony forming units at four hours compared to a control ([1]; 4 hours)
[O]=[Zn] [Zinc oxide]	at least ninety five	at least ninety five	at least ninety five	
O=C([O-])[O-].[Ca+2] [calcium carbonate, Calcium carbonate]	more than ninety five			more than ninety five
